From patent US20120295982A1, “TREATING HUMAN MALE COPD PATIENTS WITH ORAL BEDORADRINE” (MediciNova, Inc., priority 2011, published 2012)
Counter-ions that a name gives are not always drawn.

Legend:
[1] = Phase I open-label single-dose crossover oral bioavailability / PK test of bedoradrine sulfate in healthy volunteers; type: in vivo, human; conditions: for clearance: CL; for Vd: Vss; for half-life: t½
Protocol: The test was an open-label, randomized, crossover, single dose test of 600 μg (0.6 mg) bedoradrine sulfate in liquid form administered orally and of 300 μg (0.3 mg) bedoradrine sulfate administered by i.v. infusion. All subjects were in an overnight fasting state. Four male and four female subjects were enrolled in the test and received two administration sequences: Day 1: n=4 received 15-minute intravenous infusion of bedoradrine sulfate (300 μg), the other 4 received an oral administration of bedoradrine sulfate (600 μg); Day 8: the 4 subjects administered i.v. MN-221 on Day 1, received oral bedoradrine sulfate and the 4 subjects administered orally with MN-221 on Day 1, receive i.v. bedoradrine sulfate. Subjects were domiciled in the clinical research unit (CRU) for two nights, beginning on Day minus one (−1), one day prior to dosing. First dosing occurred in the morning of Day 1. Subjects were discharged from the CRU approximately 24 hours after dosing (Day 2). There was a one-week washout between doses and subjects returned to the CRU (Day 7) and were domiciled for two days. On the morning of Day 8, subjects received the opposite dosing state (from Day 1) and subjects were then discharged from the CRU approximately 24 hours after dosing (Day 9). Blood samples for plasma selection and bioanalysis were collected on the dosing days before dosing (baseline) and at 0.25, 1, 1.5, 2, 3, 4, 6, 9, 12, and 24 hr after dosing. The bioanalytical results were obtained following HPLC/MS/MS procedures. The limit of quantitation (LLOQ) for these methods was 30.3 picogram (pg)/mL. Plasma MN-221 concentrations were tabulated separately by subject and sampling time and summarized by descriptive statistics. Descriptive statistics included the sample size, mean, standard deviation, median, range, and the coefficient of variation (CV %). Mean plasma concentration-time profiles were illustrated graphically. All plasma concentrations below the limit of quantitation (BLQ) values occurring at predose and up to the first measurable concentration may otherwise be imputed as 1 pg/mL in some analyses or LLOQ. Pharmacokinetic parameters were calculated from individual plasma concentrations-time data by model-independent analysis methods using WinNonlin™. The following parameters were calculated: Cmax (observed maximum plasma concentration), tmax (observed time of maximum plasma concentration), t1/2 (terminal half-life calculated as ln(2)/λz), AUC0-24 (area under the plasma concentration-time curve calculated using the linear trapezoidal rule from time zero to time 24 hr), vss (volume of distribution at steady state), Cl (clearance), and Oral F % (% oral bioavailability). All pharmacokinetic parameters were summarized using descriptive statistics that included the sample size, mean, standard deviation, median, range, and coefficient of variation. Select t-test or non-parametric statistical analysis was optional.

[2] = Oral bioavailability in dogs; conditions: dog, in vivo, read-out: Oral F %
[3] = tested on: moderate-to-severe COPD patients; experiment: Phase Ib placebo-controlled test of i.v. MN-221 in moderate-to-severe COPD patients; type: in vivo, human; conditions: for FEV1 increase as compared to baseline (average): end of infusion
Protocol: This example provides certain preferred oral dosages for treating male COPD patients according to this invention. A randomized, double-blind, placebo-controlled phase Ib clinical test evaluated MN-221 in 48 moderate-to-severe COPD patients who received a 1 hour intravenous (i.v.) infusion of MN-221 at three different escalating dose levels (300 micrograms, 600 micrograms, or 1200 micrograms) or placebo.
(a) diagnosed (e.g., by clinical history, 20 pack/year smoking history, physical examination [PE], and spirometry) COPD treated for ≧3 months prior to Screen Visit 1; (b) ≧30% FEV1<80% and FEV1/FVC (forced vital capacity) ratio<0.7 at Screen Visits 1 and 2; and (c) increase in FEV1 of 12%, over the pre-albuterol FEV1 within 30 min after inhalation of up to 4 puffs of albuterol delivered by Metered Dose Inhaler (MDI) with spacer at the Screen Visit 1.
48 subjects with stable, moderate-to-severe chronic obstructive pulmonary disease were administered MN-221. The following does were administered. 10 μg/min for 15 min+3.3 μg/min for 45 min (1-hr infusion total dose 300 μg) or placebo; 20 μg/min for 15 min+6.67 μg/min for 45 min (1-hr infusion total dose 600 μg) or placebo; and 40 μg/min for 15 min+13.3 μg/min for 45 min (1-hr infusion total dose 1,200 μg) or placebo.

[4] = both sexes, human, in vivo, iv, 300 ug, mean
[5] = both sexes, human, in vivo, iv, 300 ug, median
[6] = both sexes, human, in vivo, iv, 300 ug, range
[7] = both sexes, human, in vivo, po, 600 ug, mean
[8] = both sexes, human, in vivo, po, 600 ug, median
[9] = both sexes, human, in vivo, po, 600 ug, range
[10] = both, human, in vivo, po, 600 ug
[11] = female, human, in vivo, po, 600 ug
[12] = human one, in vivo, iv, 300 ug, individual subject
[13] = human two, in vivo, iv, 300 ug, individual subject

fold lower oral peak level than Cmax after i.v. dosing ([1]; 0.6 mg oral vs 0.3 mg i.v.): > 30 fold
AUC ([1]; both sexes, human, in vivo, iv, 0.3 mg): ~13 ng·h/mL
AUC(0-t) ([1]; both sexes, human, in vivo, iv, 300 ug, AUC 0-24 h, mean): 13.2 ng·h/mL
AUC(0-t) ([1]; both sexes, human, in vivo, iv, 300 ug, AUC 0-24 h, median): 14.1 ng·h/mL
AUC(0-t) ([1]; both sexes, human, in vivo, iv, 300 ug, AUC 0-24 h, range): 9.31 to 15.5 ng·h/mL
clearance [1, 4]: 322 mL/min
clearance [1, 5]: 307 mL/min
clearance [1, 6]: 252 to 425 mL/min
Cmax ([1]; both sexes, human, in vivo, iv, 300 ug, Cmax, mean): 10.7 ng/mL
Cmax ([1]; both sexes, human, in vivo, iv, 300 ug, Cmax, median): 12.2 ng/mL
Cmax ([1]; both sexes, human, in vivo, iv, 300 ug, Cmax, range): 6.76 to 14.8 ng/mL
Tmax [1, 4]: 0.25 h
Tmax [1, 5]: 0.25 h
Vd [1, 4]: 222 L
Vd [1, 5]: 206 L
Vd [1, 6]: 149 to 325 L
half-life [1, 4]: 12.2 h
half-life [1, 5]: 12.5 h
half-life [1, 6]: 7.4 to 14.6 h
AUC(0-t) ([1]; both sexes, human, in vivo, po, 600 ug, AUC 0-24 h, mean): 1.94 ng·h/mL
AUC(0-t) ([1]; both sexes, human, in vivo, po, 600 ug, AUC 0-24 h, median): 1.85 ng·h/mL
AUC(0-t) ([1]; both sexes, human, in vivo, po, 600 ug, AUC 0-24 h, range): 1.05 to 3.02 ng·h/mL
Cmax ([1]; both sexes, human, in vivo, po, 600 ug, Cmax, mean): 0.305 ng/mL
Cmax ([1]; both sexes, human, in vivo, po, 600 ug, Cmax, median): 0.301 ng/mL
Cmax ([1]; both sexes, human, in vivo, po, 600 ug, Cmax, range): 0.163 to 0.5 ng/mL
Tmax [1, 7]: 1.2 h
Tmax [1, 8]: 1.5 h
Tmax [1, 9]: 0.25 to 2 h
half-life [1, 7]: 16 h
half-life [1, 8]: 15.2 h
half-life [1, 9]: 11 to 23 h
fold lower AUC following oral dosing than at the i.v. dose ([1]; both, human, in vivo): about 7 fold
time at which plasma concentrations peaked ([1]; both, human, in vivo, iv): 0.25 h
time to reach maximal plasma concentrations ([1]; both, human, in vivo, po): ≤ 2 h
Tmax, median [1, 10]: approximately 1.5 hr
t½, mean [1, 10]: 16.1 h
AUC(0-t) ([1]; female, human, in vivo, iv, 300 ug, AUC0-24 h mean): 14.9 ng·h/mL
AUC(0-t) ([1]; female, human, in vivo, iv, 300 ug, AUC0-24 h range): 13.9 to 15.5 ng·h/mL
Cmax ([1]; female, human, in vivo, iv, 300 ug, Cmax mean): 13.1 ng/mL
Cmax ([1]; female, human, in vivo, iv, 300 ug, Cmax range): 12.1 to 14.8 ng/mL
oral F % mean [1, 11]: 4.9%
oral F % range [1, 11]: 3.4-6.1%
AUC(0-t) ([1]; female, human, in vivo, po, 600 ug, AUC0-24 h mean): 1.45 ng·h/mL
AUC(0-t) ([1]; female, human, in vivo, po, 600 ug, AUC0-24 h range): 1.05 to 1.79 ng·h/mL
Cmax ([1]; female, human, in vivo, po, 600 ug, Cmax mean): 0.221 ng/mL
Cmax ([1]; female, human, in vivo, po, 600 ug, Cmax range): 0.163 to 0.299 ng/mL
AUC(0-t) ([1]; human one, in vivo, iv, 300 ug, AUC 0-24 h, individual subject): 10.7 ng·h/mL
clearance [1, 12]: 423 mL/min
Cmax ([1]; human one, in vivo, iv, 300 ug, Cmax, individual subject): 6.76 ng/mL
Tmax [1, 12]: 0.25 h
AUC(0-t) ([1]; human one, in vivo, po, 600 ug, AUC 0-24 h, individual subject): 2.14 ng·h/mL
Tmax ([1]; human one, in vivo, po, 600 ug, individual subject): 1.5 h
AUC(0-t) ([1]; human two, in vivo, iv, 300 ug, AUC 0-24 h, individual subject): 15.5 ng·h/mL
clearance [1, 13]: 252 mL/min
Cmax ([1]; human two, in vivo, iv, 300 ug, Cmax, individual subject): 14.8 ng/mL
Tmax [1, 13]: 0.25 h
Vd [1, 13]: 225 L
half-life [1, 13]: 14.6 h
AUC(0-t) ([1]; human two, in vivo, po, 600 ug, AUC 0-24 h, individual subject): 1.05 ng·h/mL
Cmax ([1]; human two, in vivo, po, 600 ug, Cmax, individual subject): 0.163 ng/mL
oral F % in men relative to women ([1]; human, in vivo, po, 600 ug): two-fold greater
AUC(0-t) ([1]; male, human, in vivo, iv, 300 ug, AUC0-24 h mean): 11.5 ng·h/mL
AUC(0-t) ([1]; male, human, in vivo, iv, 300 ug, AUC0-24 h range): 9.31 to 14.3 ng·h/mL
Cmax ([1]; male, human, in vivo, iv, 300 ug, Cmax mean): 8.42 ng/mL
Cmax ([1]; male, human, in vivo, iv, 300 ug, Cmax range): 6.76 to 12.3 ng/mL
oral F % mean ([1]; male, human, in vivo, po, 600 ug): 11.1%
AUC(0-t) ([1]; male, human, in vivo, po, 600 ug, AUC0-24 h mean): 2.44 ng·h/mL
AUC(0-t) ([1]; male, human, in vivo, po, 600 ug, AUC0-24 h range): 1.91 to 3.02 ng·h/mL
Cmax ([1]; male, human, in vivo, po, 600 ug, Cmax mean): 0.389 ng/mL
Cmax ([1]; male, human, in vivo, po, 600 ug, Cmax range): 0.303 to 0.5 ng/mL
bioavailability [2]: 39%
SMILES: CN(C)C(=O)COc1ccc2c(c1)C[C@@H](NC[C@H](O)c1ccc(O)c(CCO)c1)CC2 [MN-221, bedoradrine sulfate]
FEV1 increase as compared to baseline (average) ([3]; 300 microgram 1-hr i.v. infusion, p=NS): 9.2%
Mean changes in PEFR (L/sec) ([3]; 600 and 1200 μg i.v. groups, greatest during 1-3 hr post infusion): higher than the all placebo group
Mean changes in PEFR (% predicted) ([3]; 600 and 1200 μg i.v. groups, greatest in first 3-4 hr post-infusion): higher than the all placebo group
FEV1 increase as compared to baseline (average) ([3]; 600 microgram 1-hr i.v. infusion, p=0.020): 16.2%
FEV1 increase as compared to baseline (average) ([3]; 1200 microgram 1-hr i.v. infusion, p=0.0025): 21.5%
FEV1 (%, predicted) ([3]; MN-221 treated subjects, i.v. infusion): improved
tolerability ([3]; i.v. infusions 300-1200 μg, COPD patients): well tolerated
